Columns and labels:
KRAS G12V = KRAS G12V (Homo sapiens (Human), UniProt P01116+P62937, G12V); assay: Ras-Raf (BRAF RBD) disruption / FRET / MOA assay, KRAS G12V; type: biochemical; settings: read-out: IC50* KRAS G12V FRET data
Outline: (§1)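 A 10-point, 3-fold dilution series topping at 30 μM final was incubated 3 h at 25° C with the Ras/cyclophilin A/BRAF RBD mixture.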

KRAS G13D = KRAS G13D (Homo sapiens (Human), UniProt P01116+P62937, G13D); assay: Ras-Raf (BRAF RBD) disruption / FRET / MOA assay, KRAS G13D; type: biochemical; settings: read-out: IC50* KRAS G13D FRET data
Sequence of KRAS G13D (P01116-2 other isoform, or with tags, fused parts or gaps G13D): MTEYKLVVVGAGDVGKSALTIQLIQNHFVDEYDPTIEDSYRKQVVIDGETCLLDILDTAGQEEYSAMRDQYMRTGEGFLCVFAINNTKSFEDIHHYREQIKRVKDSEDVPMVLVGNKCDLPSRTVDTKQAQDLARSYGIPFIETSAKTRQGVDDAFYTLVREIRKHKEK
Sequence of KRAS G13D (P62937 whole entry): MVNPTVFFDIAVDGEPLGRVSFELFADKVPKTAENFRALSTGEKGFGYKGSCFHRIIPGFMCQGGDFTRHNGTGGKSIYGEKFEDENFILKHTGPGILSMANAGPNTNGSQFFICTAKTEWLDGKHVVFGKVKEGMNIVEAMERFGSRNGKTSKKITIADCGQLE
Outline: as §1

NRAS Q61R = NRAS Q61R (Homo sapiens (Human), UniProt P01111+P62937, Q61R); assay: Ras-Raf (BRAF RBD) disruption / FRET / MOA assay, NRAS Q61R; type: biochemical; settings: NRAS Q61R; Ras-Raf disruption/FRET/MOA assay; read-out: IC50* NRAS Q61R FRET data
Sequence of NRAS Q61R (P01111 whole entry Q61R): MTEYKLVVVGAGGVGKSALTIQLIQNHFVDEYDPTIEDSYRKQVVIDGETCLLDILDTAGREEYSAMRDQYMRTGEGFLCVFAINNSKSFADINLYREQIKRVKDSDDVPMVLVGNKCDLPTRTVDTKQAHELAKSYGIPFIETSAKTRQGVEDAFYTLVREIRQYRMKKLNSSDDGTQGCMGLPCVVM
Sequence of NRAS Q61R (P62937 whole entry): as the sequence (P62937 whole entry) above
Outline: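 Compounds (30 μM top final, 10-point 3-fold dilutions) incubated 3 h at 25° C with nucleotide-loaded Ras, cyclophilin A and BRAF RBD. Detection with 10 nM anti-His Eu-W1024 and 50 nM anti-GST allophycocyanin over another 1.5 h. Lowered TR-FRET ratio relative to DMSO wells gives IC50.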

K-Ras G13C = K-Ras G13C (Homo sapiens (Human), UniProt P01116+P62937, G13C); assay: Ras-Raf (BRAF RBD) disruption / FRET / MOA assay, KRAS G13C; type: biochemical; settings: KRAS G13C; Ras-Raf disruption/FRET/MOA assay; read-out: IC50* KRAS G13C FRET data
Sequence of K-Ras G13C (P01116-2 other isoform, or with tags, fused parts or gaps G13C): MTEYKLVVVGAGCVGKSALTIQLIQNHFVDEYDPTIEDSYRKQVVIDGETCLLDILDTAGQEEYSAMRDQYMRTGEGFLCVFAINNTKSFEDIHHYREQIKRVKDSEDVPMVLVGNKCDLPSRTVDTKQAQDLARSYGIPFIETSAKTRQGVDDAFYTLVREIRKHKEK
Sequence of K-Ras G13C (P62937 whole entry): as the sequence (P62937 whole entry) above
Outline: as §1

KRAS G12D = KRAS G12D (Homo sapiens (Human), UniProt P01116+P62937, G12D); assay: Ras-Raf (BRAF RBD) disruption / FRET / MOA assay, KRAS G12D; type: biochemical; settings: Ras-Raf disruption/FRET/MOA assay; class symbols; read-out: KRAS G12D FRET data IC50
Sequence of KRAS G12D (P01116-2 other isoform, or with tags, fused parts or gaps G12D): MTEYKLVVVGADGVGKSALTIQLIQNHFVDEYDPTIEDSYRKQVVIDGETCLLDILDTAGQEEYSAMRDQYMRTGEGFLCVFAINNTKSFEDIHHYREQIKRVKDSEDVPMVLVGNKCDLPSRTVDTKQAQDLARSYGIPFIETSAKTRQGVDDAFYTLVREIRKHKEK
Sequence of KRAS G12D (P62937 whole entry): as the sequence (P62937 whole entry) above
Outline: as §1

K-Ras G12C = K-Ras G12C (Homo sapiens (Human), UniProt P01116+P62937, G12C); assay: Ras-Raf (BRAF RBD) disruption / FRET / MOA assay, KRAS G12C; type: biochemical; settings: KRAS G12C; Ras-Raf disruption/FRET/MOA assay; read-out: IC50* KRAS G12C FRET data
Sequence of K-Ras G12C (P01116-2 other isoform, or with tags, fused parts or gaps G12C): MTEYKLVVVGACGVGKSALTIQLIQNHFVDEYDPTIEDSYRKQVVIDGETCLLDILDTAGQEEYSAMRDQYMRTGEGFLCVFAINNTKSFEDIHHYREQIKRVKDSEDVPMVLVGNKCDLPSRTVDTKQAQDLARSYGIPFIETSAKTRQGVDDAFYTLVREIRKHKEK
Sequence of K-Ras G12C (P62937 whole entry): as the sequence (P62937 whole entry) above
Outline: as §1

[1] = system: NCI-H358 cells (K-Ras G12C); assay: Potency assay: pERK in NCI-H358 cells; type: cell-based, human; settings: Homo sapiens, NCI-H358; H358 KRAS G12C; read-out: pERK EC50
Outline: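 pERK decrease read by AlphaLISA SureFire p-ERK1/2 or In-Cell Western after 4 h compound exposure at 37 °C, 5% CO2.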

Sequence of KRAS G12V (P01116-2 other isoform, or with tags, fused parts or gaps G12V): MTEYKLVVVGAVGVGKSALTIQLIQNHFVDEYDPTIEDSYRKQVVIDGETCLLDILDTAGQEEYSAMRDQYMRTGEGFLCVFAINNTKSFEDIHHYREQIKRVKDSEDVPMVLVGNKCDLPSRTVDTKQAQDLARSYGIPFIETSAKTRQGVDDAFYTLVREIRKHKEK
Sequence of KRAS G12V (P62937 whole entry): as the sequence (P62937 whole entry) above

Structure (SMILES)	IC50 (KRAS G12V) [µM]	IC50 (KRAS G13D) [µM]	IC50 (NRAS Q61R) [µM]	IC50 (K-Ras G13C) [µM]	IC50 (KRAS G12D) [µM]	IC50 (K-Ras G12C) [µM]	EC50 [1] [µM]
CO[C@@H](C)c1ncccc1-c1c2c3cc(ccc3n1CC(F)(F)F)-c1csc(n1)C[C@H](NC(=O)[C@H](C(C)C)N(C)C(=O)N1CCN(C(=O)/C=C/CN(C)C)C3(CC3)C1)C(=O)N1CCC[C@H](N1)C(=O)OCC(C)(C)C2 (atropisomer, axis not shown) [Example A664]	0.1 to 1	0.01 to 0.1	0.01 to 0.1	0.01 to 0.1	0.01 to 0.1	0.01 to 0.1	< 5
C=CC(=O)N1CC(N2CCN(C(=O)N(C)[C@H](C(=O)N[C@H]3Cc4nc(cs4)-c4ccc5c(c4)c(c(-c4cccnc4[C@H](C)OC)n5CC)CC(C)(C)COC(=O)[C@@H]4CCCN(N4)C3=O)C(C)C)CC2)C1 (atropisomer, axis not shown) [Example A668]	0.1 to 1	1 to 10	0.1 to 1	0.01 to 0.1	1 to 10	0.01 to 0.1	< 5
CO[C@@H](C)c1ncccc1-c1c2c3cc(ccc3n1CC(F)(F)F)-c1nc(co1)C[C@H](NC(=O)[C@@H](COC1CN(C(=O)C#CC(C)(C)N(C)C)C1)C(C)C)C(=O)N1CCC[C@H](N1)C(=O)OCC(C)(C)C2 (atropisomer, axis not shown) [Example A674]	> 10	> 10	> 10	1 to 10	> 10	0.01 to 0.1	< 5
C=CC(=O)N1CC[C@@]2(COCCN2C(=O)N(C)[C@H](C(=O)N[C@H]2Cc3nc(cs3)-c3ccc4c(c3)c(c(-c3cccnc3[C@H](C)OC)n4CC)CC(C)(C)COC(=O)[C@@H]3CCCN(N3)C2=O)C(C)C)C1 (atropisomer, axis not shown) [Example A677]	1 to 10	1 to 10	0.1 to 1	1 to 10	1 to 10	0.1 to 1	< 5
C=CC(=O)N1CCC2(CC1)CCN2C(=O)N(C)[C@H](C(=O)N[C@H]1Cc2nc(cs2)-c2ccc3c(c2)c(c(-c2cccnc2[C@H](C)OC)n3CC)CC(C)(C)COC(=O)[C@@H]2CCCN(N2)C1=O)C(C)C (atropisomer, axis not shown) [Example A678]	0.1 to 1	0.1 to 1	0.01 to 0.1	0.1 to 1	0.1 to 1	0.01 to 0.1	< 5
CCn1c(-c2cccnc2[C@H](C)OC)c2c3cc(ccc31)-c1csc(n1)C[C@H](NC(=O)[C@H](C(C)C)N(C)C(=O)N1CCC3(CC1)CN(C(=O)/C=C/C(F)F)C3)C(=O)N1CCC[C@H](N1)C(=O)OCC(C)(C)C2 (atropisomer, axis not shown) [Example A683]	0.1 to 1	0.1 to 1	0.1 to 1	< 0.01	0.1 to 1	0.01 to 0.1	< 5
C=CC(=O)N1CC[C@H](C(=O)N(C)[C@H](C(=O)N[C@H]2Cc3cccc(c3)-c3ccc4c(c3)c(c(-c3cccnc3[C@H](C)OC)n4CC)CC(C)(C)COC(=O)[C@@H]3CCCN(N3)C2=O)C(C)(C)F)C1 (atropisomer, axis not shown) [Example A693]	1 to 10	1 to 10	1 to 10	1 to 10	> 10	0.1 to 1	< 5
C=CC(=O)N1CCC2(CCN(C(=O)N(C)[C@H](C(=O)N[C@H]3Cc4nc(cs4)-c4ccc5c(c4)c(c(-c4cccnc4[C@H](C)OC)n5CC)CC(C)(C)COC(=O)[C@@H]4CCCN(N4)C3=O)C(C)C)CC2)C1 (atropisomer, axis not shown) [Example A698]	0.1 to 1	0.1 to 1	0.1 to 1	0.01 to 0.1	0.1 to 1	0.01 to 0.1	< 5
CCn1c(-c2cccnc2[C@H](C)OC)c2c3cc(ccc31)-c1csc(n1)C[C@H](NC(=O)[C@H](C(C)C)N(C)C(=O)N1CCN(C(=O)/C=C/CN(C)C)C3(CC3)C1)C(=O)N1CCC[C@H](N1)C(=O)OCC(C)(C)C2 (atropisomer, axis not shown) [Example A701]	0.1 to 1	0.1 to 1	0.1 to 1	0.1 to 1	0.1 to 1	0.01 to 0.1	< 5
C=CC(=O)N1CCC2(CC1)CN(C(=O)N(C)[C@H](C(=O)N[C@H]1Cc3nc(cs3)-c3ccc4c(c3)c(c(-c3cccnc3[C@H](C)OC)n4CC)CC(C)(C)COC(=O)[C@@H]3CCCN(N3)C1=O)C(C)C)C2 (atropisomer, axis not shown) [Example A702]	0.1 to 1	1 to 10	0.1 to 1	0.1 to 1	1 to 10	0.1 to 1	< 5
C=CC(=O)N(C)[C@H]1C[C@@H](N(C)C(=O)N(C)[C@H](C(=O)N[C@H]2Cc3nc(cs3)-c3ccc4c(c3)c(c(-c3cccnc3[C@H](C)OC)n4CC)CC(C)(C)COC(=O)[C@@H]3CCCN(N3)C2=O)C(C)C)C1 (atropisomer, axis not shown) [Example A704]	0.1 to 1	0.1 to 1	0.01 to 0.1	0.1 to 1	0.1 to 1	0.01 to 0.1	< 5
C=CC(=O)N(C)[C@H]1C[C@H](N(C)C(=O)N(C)[C@H](C(=O)N[C@H]2Cc3nc(cs3)-c3ccc4c(c3)c(c(-c3cccnc3[C@H](C)OC)n4CC)CC(C)(C)COC(=O)[C@@H]3CCCN(N3)C2=O)C(C)C)C1 (atropisomer, axis not shown) [Example A712]	0.1 to 1	0.1 to 1	0.01 to 0.1	0.1 to 1	0.1 to 1	0.01 to 0.1	< 5
C=CC(=O)N1CCO[C@@H]2CN(C(=O)N(C)[C@H](C(=O)N[C@H]3Cc4nc(cs4)-c4ccc5c(c4)c(c(-c4cccnc4[C@H](C)OC)n5CC)CC(C)(C)COC(=O)[C@@H]4CCCN(N4)C3=O)C(C)C)C[C@@H]21 (atropisomer, axis not shown) [Example A714]	0.1 to 1	1 to 10	0.1 to 1	0.01 to 0.1	1 to 10	0.1 to 1	< 5
CCn1c(-c2cccnc2[C@H](C)OC)c2c3cc(ccc31)N1CCC[C@@H](C[C@H](NC(=O)[C@@H](COC3CN(C(=O)C#CC(C)(C)N(C)C)C3)C(C)C)C(=O)N3CCC[C@H](N3)C(=O)OCC(C)(C)C2)C1 (atropisomer, axis not shown) [Example A715, (2R)-2-(((1-(4-(dimethylamino)-4-methylpent-2-ynoyl)azetidin-3-yl)oxy)methyl)-N-((2^3S,6^3S,4S)-1^1-ethyl-1^2-(2-((S)-1-methoxyethyl)pyridin-3-yl)-10,10-dimethyl-5,7-dioxo-6^1,6^2,6^3,6^4,6^5,6^6-hexahydro-1^1H-8-oxa-1(5,3)-indola-6(1,3)-pyridazina-2(1,3)-piperidinacycloundecaphane-4-yl)-3-methylbutanamide]	> 10	> 10	> 10	> 10	> 10	0.01 to 0.1	< 5
C=CC(=O)N1CCN(C(=O)N(C)[C@H](C(=O)N[C@H]2Cc3nc(cs3)-c3ccc4c(c3)c(c(-c3cccnc3[C@H](C)OC)n4CC)CC(C)(C)COC(=O)[C@@H]3CCCN(N3)C2=O)C(C)C)[C@@H]2CC[C@@H]21 (atropisomer, axis not shown) [Example A718]	0.1 to 1	0.1 to 1	0.1 to 1	0.01 to 0.1	1 to 10	0.1 to 1	< 5
C=CC(=O)N1CC[C@]2(CCN(C(=O)N(C)[C@H](C(=O)N[C@H]3Cc4nc(cs4)-c4ccc5c(c4)c(c(-c4cccnc4[C@H](C)OC)n5CC)CC(C)(C)COC(=O)[C@@H]4CCCN(N4)C3=O)C(C)C)C2)C1 (atropisomer, axis not shown) [Example A719]	0.1 to 1	0.1 to 1	0.01 to 0.1	0.01 to 0.1	0.1 to 1	0.01 to 0.1	< 5
C=CC(=O)N1CC(OC[C@H](C(=O)N[C@H]2Cc3cc(F)cc(c3)-c3ccc4c(c3)c(c(-c3cccnc3[C@H](C)OC)n4CC(F)(F)F)CC(C)(C)COC(=O)[C@@H]3CCCN(N3)C2=O)C(C)C)C1 (atropisomer, axis not shown) [Example A725]	1 to 10	1 to 10	1 to 10	0.1 to 1	> 10	0.1 to 1	< 5

Reference: patent US11566007B2, “Ras inhibitors” (Revolution Medicines, Inc., priority 2019, dated 2023)
